From US20140045832A1, “Insulin-Like Growth Factor-1 Receptor Inhibitors” (PIRAMAL ENTERPRISES LIMITED, priority 2011, published 2014) come the findings set out here.

T2 sequence (P08069 999-1274 limits assumed): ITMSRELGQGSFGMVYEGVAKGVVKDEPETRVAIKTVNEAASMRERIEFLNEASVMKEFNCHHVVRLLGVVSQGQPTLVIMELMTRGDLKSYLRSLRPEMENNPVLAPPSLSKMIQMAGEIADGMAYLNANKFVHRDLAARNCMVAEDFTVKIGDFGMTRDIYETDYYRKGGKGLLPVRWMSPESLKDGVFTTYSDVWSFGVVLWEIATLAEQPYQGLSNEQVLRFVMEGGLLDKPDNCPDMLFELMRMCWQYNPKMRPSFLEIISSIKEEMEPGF

In the first data set the target is T1, CYP3A4 (Homo sapiens, UniProt P08684).
T1 construct: purchased Invitrogen (Vivid screening kits)
T1 sequence (P08684 whole entry): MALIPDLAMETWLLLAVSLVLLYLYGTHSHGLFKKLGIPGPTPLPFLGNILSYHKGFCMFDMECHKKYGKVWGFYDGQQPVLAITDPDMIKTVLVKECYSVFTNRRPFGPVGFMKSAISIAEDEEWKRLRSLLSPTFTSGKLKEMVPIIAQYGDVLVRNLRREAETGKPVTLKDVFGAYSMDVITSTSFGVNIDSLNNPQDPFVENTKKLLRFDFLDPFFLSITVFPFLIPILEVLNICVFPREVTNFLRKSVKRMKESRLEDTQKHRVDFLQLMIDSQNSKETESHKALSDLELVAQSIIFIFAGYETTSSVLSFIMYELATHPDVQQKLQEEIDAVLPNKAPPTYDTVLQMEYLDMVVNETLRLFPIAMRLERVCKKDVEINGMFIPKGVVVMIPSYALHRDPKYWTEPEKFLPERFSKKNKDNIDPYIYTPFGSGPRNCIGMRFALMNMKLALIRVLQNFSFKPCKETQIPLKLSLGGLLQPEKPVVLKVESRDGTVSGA
As to the kind of experiment: CYP inhibition fluorescence assay (rhCYP450, Vivid Invitrogen kit). In kind it is in vitro ADME. The settings on record: recombinant human CYP3A4, 10 μM compound, read-out: % inhibition of CYP 3A4 at 10 μM. The method, then:
The % inhibition @ 10 μM data was generated from an rhCYP450/fluorescence assay according to the Vivid Invitrogen screening kits. The compounds were screened against CYP 3A4 isoform because CYP3A4 is responsible for the metabolism of approximately 50-60% of clinical drugs. The lower the percentage inhibition, the lower the CYP450 inhibitory liability of that specific compound.
As for `NC(=O)c1[nH]c2c(NC(=O)CCC(=O)O)cc(Cl)cc2c1S(=O)(=O)N1CCO[C@H](COc2ccccc2)C1` [Compound 8, (S)-4-(2-carbamoyl-5-chloro-3-(2-(phenoxymethyl)morpholinosulfonyl)-1H-indol-7-ylamino)-4-oxobutanoic acid], the inhibition at 10 µM came to 0%. The same measure, in the same setting: under `NC(=O)c1[nH]c2c(NC(=O)CCCC(=O)O)cc(Cl)cc2c1S(=O)(=O)N1CCO[C@H](COc2ccccc2)C1` [Compound 11, (S)-5-(2-carbamoyl-5-chloro-3-(2-(phenoxymethyl)morpholinosulfonyl)-1H-indol-7-ylamino)-5-oxopentanoic acid] stands 15%; under `NC(=O)c1[nH]c2c(NC(=O)CCCC(=O)N3CCOCC3)cc(Cl)cc2c1S(=O)(=O)N1CCO[C@H](COc2ccccc2)C1` [Compound 13, (S)-5-chloro-7-(5-morpholino-5-oxopentanamido)-3-(2-(phenoxymethyl)morpholinosulfonyl)-1H-indole-2-carboxamide], 46%.

In the case of `NC(=O)c1[nH]c2c(NC(=S)Nc3ccccc3)cc(Cl)cc2c1S(=O)(=O)N1CCO[C@H](COc2ccccc2)C1` [Compound 35, (S)-5-chloro-3-(2-(phenoxymethyl)morpholinosulfonyl)-7-(3-phenylthioureido)-1H-indole-2-carboxamide], the inhibition at 10 µM is < 40%.

The next data set addresses T2, human IGF-1R (Homo sapiens, UniProt P08069).
T2 construct: IGFRK and IRK enzyme used for the assay was intracellular kinase domain of human IGF-1R and human IR; made in house
Kind of data set: In vitro IGF-1R kinase assay (HTRF). The note with it: intracellular kinase domain GST fusion, ATP 20 μM, 1 hour at 23° C., read-out: IGFIR-Activity. The format is biochemical. Here is the method:
The in vitro kinase assays using IGF-1R and IR kinase GST fusion proteins were conducted using a homogeneous time-resolved fluorescence (HTRF) format. […] The standard enzyme reaction buffer consisted of 50 mM Tris HCL (pH: 7.4), 1 mM EGTA, 10 mM MgCl2, 2 mM DTT, 0.01% Tween-20, IGF-1R/IR kinase enzyme, poly GT peptide substrate (Perkin Elmer [Ulight Glu-Tyr (4:1)]n) and ATP [concentration equivalent to Kmapp]. […] Briefly, 2.5 μL enzyme and 2.5 μL inhibitor was pre-incubated for 10 minutes at 23° C. followed by the addition of 2.5 μL of poly GT substrate (final concentration of 50 nM). Reaction was initiated with the addition of 2.5 μL of ATP (final concentration of 20 μM for IGF-1R assay and 10 μM for IR assay). After 1 hour incubation at 23° C., the kinase reaction was stopped with the addition of 5 μL EDTA (final concentration of 10 mM in 20 μL). Europium cryptate—labeled antiphosphotyrosine antibody PY20 (5 μL) was added (final concentration of 2 nM) and the mixture was allowed to equilibrate for 1 hour at 23° C. followed by reading the plate in an Envision plate reader. The intensity of light emission at 665 nm was directly proportional to the level of substrate phosphorylation. The IC50 values for inhibitors were determined by a four-parameter sigmoidal curve fit (Sigma plot or Graph pad).
IGFRK and IRK enzyme used for the assay was intracellular kinase domain of human IGF-1R and human IR cloned and expressed as GST fusion proteins using the baculovirus expression system and purified using glutathione—Sepharose column.
Consider `NC(=O)c1[nH]c2c(NC(=O)CCC(=O)O)cc(Cl)cc2c1S(=O)(=O)N1CCO[C@H](COc2ccccc2)C1` [Compound 8, (S)-4-(2-carbamoyl-5-chloro-3-(2-(phenoxymethyl)morpholinosulfonyl)-1H-indol-7-ylamino)-4-oxobutanoic acid], for which the IC50 worked out at 6.6 nM. The same measure, in the same setting: under `CC(C)(CC(=O)O)CC(=O)Nc1cc(Cl)cc2c(S(=O)(=O)N3CCO[C@H](COc4ccccc4)C3)c(C(N)=O)[nH]c12` [Compound 9, (S)-5-(2-carbamoyl-5-chloro-3-(2-(phenoxymethyl)morpholinosulfonyl)-1H-indol-7-ylamino)-3,3-dimethyl-5-oxopentanoic acid] stands 55.8 nM. Take `CC(C)(CC(=O)Nc1cc(Cl)cc2c(S(=O)(=O)N3CCO[C@H](COc4ccccc4)C3)c(C(N)=O)[nH]c12)C(=O)O` [Compound 10, (S)-4-(2-carbamoyl-5-chloro-3-(2-(phenoxymethyl)morpholinosulfonyl)-1H-indol-7-ylamino)-2,2-dimethyl-4-oxobutanoic acid]: the IC50 worked out at 29.9 nM. Still for that read-out and setting: under `NC(=O)c1[nH]c2c(NC(=O)CCCC(=O)O)cc(Cl)cc2c1S(=O)(=O)N1CCO[C@H](COc2ccccc2)C1` [Compound 11, (S)-5-(2-carbamoyl-5-chloro-3-(2-(phenoxymethyl)morpholinosulfonyl)-1H-indol-7-ylamino)-5-oxopentanoic acid] stands 10 nM; under `NC(=O)c1[nH]c2c(NC(=O)CCCC(=O)N3CCOCC3)cc(Cl)cc2c1S(=O)(=O)N1CCO[C@H](COc2ccccc2)C1` [Compound 13, (S)-5-chloro-7-(5-morpholino-5-oxopentanamido)-3-(2-(phenoxymethyl)morpholinosulfonyl)-1H-indole-2-carboxamide], 7.6 nM. On the same count and under the same terms, under `N#CCC(=O)Nc1cc(Cl)cc2c(S(=O)(=O)N3CCO[C@H](COc4ccccc4)C3)c(C(N)=O)[nH]c12` [Compound 14, (S)-5-chloro-7-(2-cyanoacetamido)-3-(2-(phenoxymethyl)morpholinosulfonyl)-1H-indole-2-carboxamide] stands > 100 nM; under `CCOC(=O)CCCC(=O)Nc1cc(Cl)cc2c(S(=O)(=O)N3CCO[C@H](COc4ccccc4)C3)c(C(N)=O)[nH]c12` [Compound 15, (S)-ethyl 5-(2-carbamoyl-5-chloro-3-(2-(phenoxymethyl)morpholinosulfonyl)-1H-indol-7-ylamino)-5-oxopentanoate], < 100 nM.

Turning to `NC(=O)c1[nH]c2c(NCCC(=O)O)cc(Cl)cc2c1S(=O)(=O)N1CCO[C@H](COc2ccccc2)C1` [Compound 16, (S)-3-(2-carbamoyl-5-chloro-3-(2-(phenoxymethyl)morpholinosulfonyl)-1H-indol-7-ylamino)propanoic acid], the IC50 was 2.6 nM. On the same count and under the same terms, under `NC(=O)CCNc1cc(Cl)cc2c(S(=O)(=O)N3CCO[C@H](COc4ccccc4)C3)c(C(N)=O)[nH]c12` [Compound 17, (S)-7-(3-amino-3-oxopropylamino)-5-chloro-3-(2-(phenoxymethyl)morpholinosulfonyl)-1H-indole-2-carboxamide] stands 11.5 nM; under `CCOC(=O)CCCNc1cc(Cl)cc2c(S(=O)(=O)N3CCO[C@H](COc4ccccc4)C3)c(C(N)=O)[nH]c12` [Compound 18, (S)-ethyl 4-(2-carbamoyl-5-chloro-3-(2-(phenoxymethyl)morpholinosulfonyl)-1H-indol-7-ylamino)butanoate], > 100 nM.

As for `NC(=O)c1[nH]c2c(NC3CCCCC3)cc(Cl)cc2c1S(=O)(=O)N1CCO[C@H](COc2ccccc2)C1` [Compound 21, (S)-5-chloro-7-(cyclohexylamino)-3-(2-(phenoxymethyl)morpholinosulfonyl)-1H-indole-2-carboxamide], the IC50 was > 100 nM.

With `NC(=O)c1[nH]c2c(NCC3CCCCC3)cc(Cl)cc2c1S(=O)(=O)N1CCO[C@H](COc2ccccc2)C1` [Compound 22, (S)-5-chloro-7-(cyclohexylmethylamino)-3-(2-(phenoxymethyl)morpholinosulfonyl)-1H-indole-2-carboxamide], the IC50 was > 100 nM. Turning to `NC(=O)c1[nH]c2c(NC3CCCC3)cc(Cl)cc2c1S(=O)(=O)N1CCO[C@H](COc2ccccc2)C1` [Compound 24, (S)-5-chloro-7-(cyclopentylamino)-3-(2-(phenoxymethyl)morpholinosulfonyl)-1H-indole-2-carboxamide], the IC50 is > 100 nM.

As for `NC(=O)c1[nH]c2c(NCC3(N)CCCC3)cc(Cl)cc2c1S(=O)(=O)N1CCO[C@H](COc2ccccc2)C1` [Compound 25, (S)-7-((1-aminocyclopentyl)methylamino)-5-chloro-3-(2-(phenoxymethyl)morpholinosulfonyl)-1H-indole-2-carboxamide], the IC50 was > 100 nM.

`NC(=O)c1[nH]c2c(NCc3ccc(C(=O)O)cc3)cc(Cl)cc2c1S(=O)(=O)N1CCO[C@H](COc2ccccc2)C1` [Compound 26, (S)-4-((2-carbamoyl-5-chloro-3-(2-(phenoxymethyl)morpholinosulfonyl)-1H-indol-7-ylamino)methyl)benzoic acid]: the IC50 is < 100 nM.

Turning to `CC(C)(C)NC(=O)N1CCC(Nc2cc(Cl)cc3c(S(=O)(=O)N4CCO[C@H](COc5ccccc5)C4)c(C(N)=O)[nH]c23)CC1` [Compound 27, (S)-7-(1-(tert-butylcarbamoyl)piperidin-4-ylamino)-5-chloro-3-(2-(phenoxymethyl)morpholinosulfonyl)-1H-indole-2-carboxamide], the IC50 turned out to be 9.8 nM.

Take `NC(=O)c1[nH]c2c(NC3CCN(C(=O)NCC4CCCCC4)CC3)cc(Cl)cc2c1S(=O)(=O)N1CCO[C@H](COc2ccccc2)C1` [Compound 29, (S)-5-chloro-7-(1-(cyclohexylmethylcarbamoyl)piperidin-4-ylamino)-3-(2-(phenoxymethyl)morpholinosulfonyl)-1H-indole-2-carboxamide]: the IC50 was determined as 32.9 nM. Same read-out and setting: under `NC(=O)c1[nH]c2c(NCc3ccc(F)cc3)cc(Cl)cc2c1S(=O)(=O)N1CCO[C@H](COc2ccccc2)C1` [Compound 30, (S)-5-chloro-7-(4-fluorobenzylamino)-3-(2-(phenoxymethyl)morpholinosulfonyl)-1H-indole-2-carboxamide] stands > 100 nM; under `CC(C)CN1CCC(Nc2cc(Cl)cc3c(S(=O)(=O)N4CCO[C@H](COc5ccccc5)C4)c(C(N)=O)[nH]c23)CC1` [Compound 31, (S)-5-chloro-7-(1-isobutylpiperidin-4-ylamino)-3-(2-(phenoxymethyl)morpholinosulfonyl)-1H-indole-2-carboxamide], 39 nM; under `NC(=O)c1[nH]c2c(NC3CCNC3)cc(Cl)cc2c1S(=O)(=O)N1CCO[C@H](COc2ccccc2)C1` (stereo partly drawn) [Compound 32, 5-chloro-3-((S)-2-(phenoxymethyl)morpholinosulfonyl)-7-(pyrrolidin-3-ylamino)-1H-indole-2-carboxamide], 48.7 nM. Take `CCOC(=O)N1CCC(Nc2cc(F)cc3c(S(=O)(=O)N4CCO[C@H](COc5ccccc5)C4)c(C(N)=O)[nH]c23)CC1` [Compound 33, (S)-ethyl 4-(2-carbamoyl-5-fluoro-3-(2-(phenoxymethyl)morpholinosulfonyl)-1H-indol-7-ylamino)piperidine-1-carboxylate]: the IC50 is < 100 nM.

On to `NC(=O)c1[nH]c2c(NC(=S)Nc3ccccc3)cc(Cl)cc2c1S(=O)(=O)N1CCO[C@H](COc2ccccc2)C1` [Compound 35, (S)-5-chloro-3-(2-(phenoxymethyl)morpholinosulfonyl)-7-(3-phenylthioureido)-1H-indole-2-carboxamide], for which the IC50 came to 1.3 nM. On to `NC(=O)c1[nH]c2c(NC3CCNCC3)cc(Cl)cc2c1S(=O)(=O)N1CCO[C@H](COc2ccccc2)C1` [Compound 36, (S)-5-chloro-3-(2-(phenoxymethyl)morpholinosulfonyl)-7-(piperidin-4-ylamino)-1H-indole-2-carboxamide], for which the IC50 amounted to 22 nM.
